According to the OligoGym collection:
Bases are written 5' to 3'; sugars and linkages follow in the same order, as letters with counts (s phosphorothioate, o phosphodiester; PS: all linkages phosphorothioate). C may stand for cytosine or 5-methylcytosine; the collection does not tell. l = locked nucleic acid (LNA); d = 2'-deoxy (DNA)

Biological target: HIF1A
Assay: HeLa, 100 nM transfected, 24 h, mean of 3
Details: ASO

## GTTACTGCCTTCTTAC (sugars l2 d1 l1 d11 l1, PS)
  caspase activation (% of PBS control): 110

## GTTACTGCCTTCTTAC (sugars l2 d1 l2 d6 l5, PS)
  caspase activation (% of PBS control): 474

## GTTACTGCCTTCTTAC (sugars l2 d1 l2 d7 l4, PS)
  caspase activation (% of PBS control): 376

## GTTACTGCCTTCTTAC (sugars l2 d1 l2 d8 l3, PS)
  caspase activation (% of PBS control): 318

## GTTACTGCCTTCTTAC (sugars l2 d1 l2 d9 l2, PS)
  caspase activation (% of PBS control): 161

## GTTACTGCCTTCTTAC (sugars l2 d1 l2 d10 l1, PS)
  caspase activation (% of PBS control): 161

## GTTACTGCCTTCTTAC (sugars l2 d2 l1 d6 l5, PS)
  caspase activation (% of PBS control): 365

## GTTACTGCCTTCTTAC (sugars l2 d2 l1 d7 l4, PS)
  caspase activation (% of PBS control): 324

## GTTACTGCCTTCTTAC (sugars l2 d2 l1 d8 l3, PS)
  caspase activation (% of PBS control): 237

## GTTACTGCCTTCTTAC (sugars l2 d2 l1 d9 l2, PS)
  caspase activation (% of PBS control): 138

## GTTACTGCCTTCTTAC (sugars l2 d2 l1 d10 l1, PS)
  caspase activation (% of PBS control): 158

## GTTACTGCCTTCTTAC (sugars l2 d9 l1 d1 l3, PS)
  caspase activation (% of PBS control): 157

## GTTACTGCCTTCTTAC (sugars l2 d9 l1 d2 l2, PS)
  caspase activation (% of PBS control): 120

## GTTACTGCCTTCTTAC (sugars l2 d9 l1 d3 l1, PS)
  caspase activation (% of PBS control): 107

## GTTACTGCCTTCTTAC (sugars l2 d9 l2 d1 l2, PS)
  caspase activation (% of PBS control): 223

## GTTACTGCCTTCTTAC (sugars l2 d9 l2 d2 l1, PS)
  caspase activation (% of PBS control): 199

## GTTACTGCCTTCTTAC (sugars l2 d9 l3 d1 l1, PS)
  caspase activation (% of PBS control): 333

## GTTACTGCCTTCTTAC (sugars l2 d9 l5, PS)
  caspase activation (% of PBS control): 328

## GTTACTGCCTTCTTAC (sugars l2 d10 l1 d1 l2, PS)
  caspase activation (% of PBS control): 128

## GTTACTGCCTTCTTAC (sugars l2 d10 l1 d2 l1, PS)
  caspase activation (% of PBS control): 123

## GTTACTGCCTTCTTAC (sugars l2 d10 l2 d1 l1, PS)
  caspase activation (% of PBS control): 151

## GTTACTGCCTTCTTAC (sugars l2 d10 l4, PS)
  caspase activation (% of PBS control): 151

## GTTACTGCCTTCTTAC (sugars l2 d11 l1 d1 l1, PS)
  caspase activation (% of PBS control): 129

## GTTACTGCCTTCTTAC (sugars l2 d11 l3, PS)
  caspase activation (% of PBS control): 122

## GTTACTGCCTTCTTAC (sugars l2 d12 l2, PS)
  caspase activation (% of PBS control): 103

## GTTACTGCCTTCTTAC (sugars l2 d13 l1, PS)
  caspase activation (% of PBS control): 102

## GTTACTGCCTTCTTAC (sugars l3 d1 l1 d6 l5, PS)
  caspase activation (% of PBS control): 474

## GTTACTGCCTTCTTAC (sugars l3 d1 l1 d7 l4, PS)
  caspase activation (% of PBS control): 324

## GTTACTGCCTTCTTAC (sugars l3 d1 l1 d8 l3, PS)
  caspase activation (% of PBS control): 264

## GTTACTGCCTTCTTAC (sugars l3 d1 l1 d9 l2, PS)
  caspase activation (% of PBS control): 185

## GTTACTGCCTTCTTAC (sugars l3 d1 l1 d10 l1, PS)
  caspase activation (% of PBS control): 185

## GTTACTGCCTTCTTAC (sugars l3 d8 l1 d1 l3, PS)
  caspase activation (% of PBS control): 197

## GTTACTGCCTTCTTAC (sugars l3 d8 l1 d2 l2, PS)
  caspase activation (% of PBS control): 204

## GTTACTGCCTTCTTAC (sugars l3 d8 l1 d3 l1, PS)
  caspase activation (% of PBS control): 198

## GTTACTGCCTTCTTAC (sugars l3 d8 l2 d1 l2, PS)
  caspase activation (% of PBS control): 243

## GTTACTGCCTTCTTAC (sugars l3 d8 l2 d2 l1, PS)
  caspase activation (% of PBS control): 273

## GTTACTGCCTTCTTAC (sugars l3 d8 l3 d1 l1, PS)
  caspase activation (% of PBS control): 360

## GTTACTGCCTTCTTAC (sugars l3 d8 l5, PS)
  caspase activation (% of PBS control): 379

## GTTACTGCCTTCTTAC (sugars l3 d9 l1 d1 l2, PS)
  caspase activation (% of PBS control): 188

## GTTACTGCCTTCTTAC (sugars l3 d9 l1 d2 l1, PS)
  caspase activation (% of PBS control): 185

## GTTACTGCCTTCTTAC (sugars l3 d9 l2 d1 l1, PS)
  caspase activation (% of PBS control): 202

## GTTACTGCCTTCTTAC (sugars l3 d9 l4, PS)
  caspase activation (% of PBS control): 165

## GTTACTGCCTTCTTAC (sugars l3 d10 l1 d1 l1, PS)
  caspase activation (% of PBS control): 161

## GTTACTGCCTTCTTAC (sugars l3 d10 l3, PS)
  caspase activation (% of PBS control): 134

## GTTACTGCCTTCTTAC (sugars l3 d11 l2, PS)
  caspase activation (% of PBS control): 136

## GTTACTGCCTTCTTAC (sugars l3 d12 l1, PS)
  caspase activation (% of PBS control): 127

## GTTACTGCCTTCTTAC (sugars l4 d7 l1 d1 l3, PS)
  caspase activation (% of PBS control): 253

## GTTACTGCCTTCTTAC (sugars l4 d7 l1 d2 l2, PS)
  caspase activation (% of PBS control): 255

## GTTACTGCCTTCTTAC (sugars l4 d7 l1 d3 l1, PS)
  caspase activation (% of PBS control): 250

## GTTACTGCCTTCTTAC (sugars l4 d7 l2 d1 l2, PS)
  caspase activation (% of PBS control): 291

## GTTACTGCCTTCTTAC (sugars l4 d7 l2 d2 l1, PS)
  caspase activation (% of PBS control): 264

## GTTACTGCCTTCTTAC (sugars l4 d7 l3 d1 l1, PS)
  caspase activation (% of PBS control): 444

## GTTACTGCCTTCTTAC (sugars l4 d7 l5, PS)
  caspase activation (% of PBS control): 461

## GTTACTGCCTTCTTAC (sugars l4 d8 l1 d1 l2, PS)
  caspase activation (% of PBS control): 218

## GTTACTGCCTTCTTAC (sugars l4 d8 l1 d2 l1, PS)
  caspase activation (% of PBS control): 209

## GTTACTGCCTTCTTAC (sugars l4 d8 l2 d1 l1, PS)
  caspase activation (% of PBS control): 284

## GTTACTGCCTTCTTAC (sugars l4 d8 l4, PS)
  caspase activation (% of PBS control): 272

## GTTACTGCCTTCTTAC (sugars l4 d9 l1 d1 l1, PS)
  caspase activation (% of PBS control): 191

## GTTACTGCCTTCTTAC (sugars l4 d9 l3, PS)
  caspase activation (% of PBS control): 160

## GTTACTGCCTTCTTAC (sugars l4 d10 l2, PS)
  caspase activation (% of PBS control): 190

## GTTACTGCCTTCTTAC (sugars l4 d11 l1, PS)
  caspase activation (% of PBS control): 159

## GTTACTGCCTTCTTAC (sugars l5 d6 l1 d1 l3, PS)
  caspase activation (% of PBS control): 441

## GTTACTGCCTTCTTAC (sugars l5 d6 l1 d2 l2, PS)
  caspase activation (% of PBS control): 442

## GTTACTGCCTTCTTAC (sugars l5 d6 l1 d3 l1, PS)
  caspase activation (% of PBS control): 454

## GTTACTGCCTTCTTAC (sugars l5 d6 l2 d1 l2, PS)
  caspase activation (% of PBS control): 488

## GTTACTGCCTTCTTAC (sugars l5 d6 l2 d2 l1, PS)
  caspase activation (% of PBS control): 492

## GTTACTGCCTTCTTAC (sugars l5 d6 l3 d1 l1, PS)
  caspase activation (% of PBS control): 603

## GTTACTGCCTTCTTAC (sugars l5 d6 l5, PS)
  caspase activation (% of PBS control): 624

## GTTACTGCCTTCTTAC (sugars l5 d7 l1 d1 l2, PS)
  caspase activation (% of PBS control): 454

## GTTACTGCCTTCTTAC (sugars l5 d7 l1 d2 l1, PS)
  caspase activation (% of PBS control): 446

## GTTACTGCCTTCTTAC (sugars l5 d7 l2 d1 l1, PS)
  caspase activation (% of PBS control): 515

## GTTACTGCCTTCTTAC (sugars l5 d7 l4, PS)
  caspase activation (% of PBS control): 574
